The record followed here is patent publication US7045311B2, “Whole cell assay systems for cell surface proteases” (Monogram Biosciences, Inc., priority 2001, dated 2006).

Type in all cases: cell-based
The target of assay [1] is T1, ADAM 17 (Homo sapiens, UniProt P78536).
T1 construct: endogenous in cells; host or cells: THP-1 cells (whole, live)
The assay is described as follows: Whole cell ADAM 17 assay: cleavage of TNF-α-FL by THP-1 cells, capillary electrophoresis. Particulars: for formation of TNF-α-FL cleavage product (ADAM 17 activity): TNF-α-FL substrate, reagent added to the assay.
Method: A substrate for a cell surface protease, typically an ADAM, or preferably a plurality of substrates for different proteases, each having a distinct detectable label, is added to a live cell suspension in a buffer. Typically, about 1.5×10^5 cells are used in 50 μL medium. […] The cells are washed three times on ice with buffer (lacking the protein and anti-proteases noted below) before use. A suitable buffer consists of 50 mM HEPES (pH 7.2), 150 mM NaCl, 2 mM MgCl2, 0.1% human serum albumin (HSA), with serine and thiol protease inhibitor cocktail (Roche Diagnostics). Depending on the peptide, nonspecific binding may be blocked by addition of a protein selected from human serum albumin (HSA), bovine serum albumin (BSA), casein (CAS), gamma globulins (GG), and fetal bovine serum (FBS).
All component additions are done on ice, and the tubes are then transferred to a temperature controlled water bath for incubation. The assay mixture is incubated at a fixed temperature for a fixed time, e.g., 37° C. for 1 hr. Following incubation, the tubes are removed from the incubator and placed again on ice.
For experiments employing additional reagents, such as a GPCR agonist or a protein kinase C stimulator such as PMA (phorbol myristate acetate), the additional reagent is added at the beginning of the incubation period.
A suitable separation medium consists of 1% PEO in 50 mM HEPES (pH 7.2). […] In a typical separation, detection occurs at 5 mm down from the injection site (cross), an argon-ion laser is used as the excitation source, PMT is typically set at 600V to 900V, and gain is set to 5 μA/V at a frequency of 10 Hz. The 10× objective is used, and the sampling rate is 200/sec. Well volumes are typically 2 μL.
For peak analysis, time normalized peak areas for peptide cleavage products are divided by time normalized fluorescein (or aminomethyl fluorescein) peak areas to arrive at the product/fluorescein normalized area ratios.
A TNF-α peptide fragment, known to be a substrate for ADAM 17, was labeled at the N-terminus with fluorescein. […] After a one-hour incubation, aminomethyl fluorescein was added as an electrophoretic marker, and the reaction supernatant was separated by capillary electrophoresis.

Assay [2] relates to ADAM 10. The assay is described as follows: Whole cell ADAM 10 assay in HEK-293 cells. The procedure: (§1) For experiments involving GPCR's, adherent cells are plated into 96-well plates at 5×10^4 cells/well and serum starved for 18–24 hr prior to use. A suitable buffer comprises 10 mM HEPES (pH 7.2), 1× HANKS, 0.1% human serum albumin (HSA), and serine/thiol protease inhibitor cocktail (Roche Diagnostics). Cells are washed three times with the HANKS-HEPES buffer, lacking protein and anti-protease, prior to use.
(§2) The products of the assays are conveniently analyzed by capillary electrophoresis on a microfluidic LabCard™ (ACLARA Biosciences, Inc.). Typically, a LabCard™ containing a 64-channel array is used, but no special changes are needed to run the assay on a 96- or 32-channel card, or other configuration.
(§3) The configuration of channels for each separation on a LabCard is shown schematically in FIG. 13. The channel network may be a double-T network as shown or a cross network, i.e. where wells 110 and 114 in the figure are directly opposed. A suitable separation medium consists of 1% PEO in 50 mM HEPES (pH 7.2). In a typical separation, sample is injected from well 110 to well 114 at an injection voltage of 550V for e.g. 35 sec. Separation is carried out from well 104 to well 106 for e.g. 20 sec., with the voltages of 0V, 380V, 800V, and 380V in wells 104, 110, 106, and 114, respectively, resulting in a field strength of 455V/cm. […]

In assay [3] the test system is ADAM 10. The experiment in a line: Whole cell ADAM 10 assay: cleavage of CD40L-FL by Rat-1 cells with GPCR ligands. Particulars: CD40L-FL substrate. The method, then:
as §1, §2, §3

Entries after “also recorded” stand apart in the source; their conditions may differ.

T1 sequence (P78536 215-824): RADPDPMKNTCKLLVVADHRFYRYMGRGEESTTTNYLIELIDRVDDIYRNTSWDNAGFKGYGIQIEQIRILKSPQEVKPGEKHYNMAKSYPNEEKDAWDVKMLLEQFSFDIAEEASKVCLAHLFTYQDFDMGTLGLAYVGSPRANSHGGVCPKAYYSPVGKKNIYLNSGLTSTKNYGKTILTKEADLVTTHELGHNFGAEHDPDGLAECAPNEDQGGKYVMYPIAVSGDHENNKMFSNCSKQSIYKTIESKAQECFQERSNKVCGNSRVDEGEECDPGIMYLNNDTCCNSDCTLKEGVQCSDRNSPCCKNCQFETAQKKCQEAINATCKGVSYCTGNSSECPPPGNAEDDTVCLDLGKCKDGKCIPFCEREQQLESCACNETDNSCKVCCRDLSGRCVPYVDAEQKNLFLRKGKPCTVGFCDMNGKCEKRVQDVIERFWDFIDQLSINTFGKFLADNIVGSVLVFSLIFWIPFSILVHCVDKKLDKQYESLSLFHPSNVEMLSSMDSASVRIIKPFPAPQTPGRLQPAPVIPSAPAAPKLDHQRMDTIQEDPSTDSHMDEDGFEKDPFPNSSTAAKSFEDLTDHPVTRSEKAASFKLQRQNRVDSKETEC

As for `CNC(=O)[C@H](Cc1c[nH]c2ccccc12)NC(=O)[C@@H](CC(=O)NO)CC(C)C` [GM6001], the “formation of TNF-α-FL cleavage product (ADAM 17 activity)” value in assay [1] is on record as “completely inhibited”.
As to `CCCCCCCCCCCCCC(=O)O[C@@H]1[C@@H](C)[C@@]2(O)[C@@H](C=C(CO)C[C@]3(O)C(=O)C(C)=C[C@@H]23)[C@@H]2C(C)(C)[C@]12OC(C)=O` [PMA, phorbol myristate acetate], the “formation of TNF-α-FL cleavage product (ADAM 17 activity)” value in assay [1] is given as “significantly lower; also recorded: significantly reduced”. In addition, the “ADAM 10 activity” value in assay [2] was “decline”.
In the case of `C[N+](C)(C)CCOC(N)=O` [carbachol], the “ADAM 10 activity” value in assay [2] is listed as “activated”.
Take `OC[C@H]1O[C@@](CO)(O[C@H]2O[C@H](CO)[C@@H](O)[C@H](O)[C@H]2O)[C@@H](O)[C@@H]1O` [sucrose]: the “TNF-α-FL cleavage activity on addition of sucrose in the presence of PMA” value in assay [1] (450 mM sucrose with PMA) is “restored the activity”.
Consider “endothelin-1: known ligand for GPCRs (CSCSSLMDKECVYFCHLDIIW)”, for which the “ADAM 10 activity (amount of CD40L-FL cleavage product)” value in assay [3] is given as “decreased”.
On to lysophosphatidic acid [LPA], for which the “ADAM 10 activity (amount of CD40L-FL cleavage product)” value in assay [3] was “increased”.
